From patent publication US6635615B1, “Stable salts of S-adenosyl-l-methionine” (priority 1999, dated 2003)

Legend:
[1] = oral; alcoholic liver cirrhosis; compared with a placebo treated group; cited from earlier work
[2] = preliminary study; cited from earlier work
[3] = oral; patients with and without liver disease; cited from earlier work
[4] = oral; patients with intrahepatic cholestasis; cited from earlier work
[5] = oral; short term trial; cited from earlier work
[6] = Stability on storage at room temperature, HPLC analysis of SAM-e concentration; assay type: physicochemical
Source text: SAM-e-1, 4-butane-disulphonate and chitosan salt of SAM-e 1, 4-butane-disulphonate were stored at room temperature, in a closed, clear glass vial at constant humidity. HPLC analysis done according to Bottligleri, T. (1990) Isocratic high performance liquid chromatographic analysis of S-adenosylmethionine and S-adenosylhomocysteine in animal tissues: the effect of exposure to nitrous oxide. Biomed Chromatogr, 4(6):239-41.
Stability study-of polycation (chitosan) salt of SAM-e tosylate
SAM-e tosylate and chitosan salt of SAM-e tosylate were stored at room temperature, in a closed, clear glass vial at constant humidity. HPLC analysis done according to Bottligleri, T. (1990) Isocratic high performance liquid chromatographic analysis of S-adenosylmethionine and S-adenosylhomocysteine in animal tissues: the effect of exposure to nitrous oxide. Biomed Chromatogr, 4(6):239-41.

C[S+](CC[C@H](N)C(=O)[O-])C[C@H]1O[C@@H](n2cnc3c(N)ncnc32)[C@H](O)[C@@H]1O (stereo partly drawn) [SAM-e, S-adenosyl-1-methionine]
overall mortality and/or progression to liver transplant [1]: 29% vs 12%
cognitive effect in patients with Alzheimer's disease [2]: cognitive improvement
liver glutathione levels [3]: increases in liver glutathione levels
pruritus and biochemical markers of cholestasis [4]: improvements in both the pruritus as well as the biochemical markers of cholestasis
clinical effect in primary fibromyalgia [5]: significant improvement

C[S+](CC[C@H](N)C(=O)O)C[C@H]1O[C@@H](n2cnc3c(N)ncnc32)[C@H](O)[C@@H]1O.Cc1ccc(S(=O)(=O)[O-])cc1 (stereo partly drawn) [SAM-e tosylate]
deteriorated by (over the period of time) ([6]; Example 11, text, room temperature storage Dec. 28, 1999 to Apr. 4, 2000): 92.9%
Analysis: Dec. 28, 1999 Concentration 0.5 mg/ml 1:125 ([6]; Example 11, first analysis Dec. 28, 1999, 0.5 mg/ml, dilution 1:125, HPLC): 3492 nmol/L
Analysis: Apr. 4, 2000 Concentration 0.5 mg/ml 1:125 ([6]; Example 11, second analysis Apr. 4, 2000, stored at room temperature, closed clear glass vial, constant humidity, 0.5 mg/ml, 1:125): 247.9 nmol/L

C[S+](CC[C@H](N)C(=O)[O-])C[C@H]1O[C@@H](n2cnc3c(N)ncnc32)[C@H](O)[C@@H]1O.O=S(=O)(O)CCCCS(=O)(=O)O (stereo partly drawn) [SAM-e-1,4-butane-disulphonate]
deteriorated by (over the period of time) ([6]; Example 10, text, room temperature storage May 11, 2000 to Aug. 22, 2000): 43%
% Change ([6]; Example 10, May 11, 2000 to Aug. 22, 2000, room temperature, closed clear glass vial, constant humidity): −43.9%
Analysis: May 11, 2000 Concentration 1:500 ([6]; Example 10, first analysis May 11, 2000, dilution 1:500, HPLC): 1417.96 nmol/L
Analysis: Aug. 22, 2000 Concentration 1:500 ([6]; Example 10, second analysis Aug. 22, 2000, stored at room temperature, closed clear glass vial, constant humidity, dilution 1:500): 794.41 nmol/L
